The record followed here is patent US10087181B2, “Compound as WNT signaling inhibitor, composition, and use thereof” (CUREGENIX, INC., priority 2012, dated 2018).

The subject of the assay is WNT pathway. Put plainly: WNT pathway reporter gene assay (NIH3T3 TCF-Luc cells co-cultured with 293 WNT3a cells). It counts as cell-based. To be noted: Mus musculus, concentration reducing luminescence intensity by 50%, TCF luciferase, 16 hours co-culture. The protocol: NIH3T3 mouse fibroblast cells (American Type Culture Collection, Manassas, Va.) were transfected with a plasmid containing a luciferase gene driven by 5 copies of TCF elements. Stale cells selected with 1 μg/mL of Zeocin (Gibco/Invitrogen, Carlsbad, Calif.) are cultured in Dulbecco's modified Eagle's medium (Invitrogen, Carlsbad, Calif.) supplemented with 10% FBS (Invitrogen), 50 unit/mL penicillin and 50 μg/mL of streptomycin (Invitrogen) at 37° C. with 5% CO2 in air atmosphere.
After 16 hours, the firefly luciferase activities are measured with the Steady-Glo™ Luciferase Assay System (Promega). The cells were treated with different concentrations of compounds of this invention during the co-culture. […] To normalize for cell quantity and viability, CellTiter Glo assay is next performed in a duplicate plate.

Structures are written as SMILES.

For the molecule `Cc1cc(-c2cc3ccnc(NCc4ccc(-c5ccnc(C)c5)c(C)c4)c3cn2)ccn1` [Compound 2, N-(3-methyl-4-(2-methylpyridin-4-yl)benzyl)-6-(2-methylpyridin-4-yl)-2,7-naphthyridin-1-amine], the IC50 (commonly the concentration at which inhibition is half-maximal) was under 3 nM.

`Cc1cc(-c2ncc(CNc3nccc4cc(-c5cnccn5)ccc34)cc2C)ccn1` [Compound 70] registered an IC50 of under 3 nM. With `Cc1cc(-c2cc3ccnc(NCc4ccc(-c5ccnc(F)c5)c(F)c4)c3cn2)ccn1` [Compound 28] the figure was under 3 nM. As for `Cc1cc(-c2ccc(CNc3nccc4cc(-c5ccnc(C)c5)ncc34)cc2)ccn1` [Compound 1, N-(4-(2-methylpyridin-4-yl)benzyl)-6-(2-methylpyridin-4-yl)-2,7-naphthyridin-1-amine], the IC50 is under 3 nM. Turning to `Cc1cc(-c2ccc(CNc3nccc4cc(-c5cnccn5)ncc34)cc2)ccn1` [Compound 35], the IC50 was under 3 nM.
